Assay results as given in PMC9848300, “Discovery of novel enasidenib analogues targeting inhibition of mutant isocitrate dehydrogenase 2 as antileukaemic agents” (Journal of Enzyme Inhibition and Medicinal Chemistry, 2023).

Key:
[1] = tested on: CCRF-CEM; assay: NCI 60 antitumor screening (single dose / five doses); assay type: cell-based; conditions: Homo sapiens; CCRF-CEM (leukaemia), single dose 10 μM; read-out: Growth inhibition percentage (GI %)
[2] = tested on: RPMI-8226; assay: as above; assay type: cell-based; conditions: Homo sapiens; RPMI-8226 (leukaemia), single dose 10 μM; read-out: Growth inhibition percentage (GI %)
[3] = tested on: SR; assay: as above; assay type: cell-based; conditions: Homo sapiens; SR (leukaemia), single dose 10 μM; read-out: Growth inhibition percentage (GI %)
[4] = tested on: EKVX; assay: as above; assay type: cell-based; conditions: Homo sapiens; EKVX (non-small cell lung cancer), single dose 10 μM; read-out: Growth inhibition percentage (GI %)
[5] = tested on: HOP-92; assay: as above; assay type: cell-based; conditions: Homo sapiens; HOP-92 (non-small cell lung cancer), single dose 10 μM; read-out: Growth inhibition percentage (GI %)
[6] = tested on: HCC-2998; assay: NCI 60 antitumor screening (single dose); assay type: cell-based; conditions: Homo sapiens; HCC-2998 (colon cancer), single dose 10 μM; read-out: Growth inhibition percentage (GI %)
How it was run: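 Under the NCI Drug Evaluation Branch protocol, each compound is screened at one 10 μM concentration on the 60-line human tumour panel. Growth of treated cells is expressed as G%, and inhibition is reported as 100 − G%.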

[7] = tested on: SNB-19; assay: NCI 60 antitumor screening (single dose); assay type: cell-based; conditions: Homo sapiens; SNB-19 (CNS cancer), single dose 10 μM; read-out: Growth inhibition percentage (GI %)
How it was run: (§1)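 Values are GI% (100 − G%) from the NCI 60-line single-dose screen, compound at 10 μM.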

[8] = tested on: TK-10; assay: NCI 60 antitumor screening (single dose); assay type: cell-based; conditions: Homo sapiens; TK-10 (renal cancer), single dose 10 μM; read-out: Growth inhibition percentage (GI %)
How it was run: as §1

[9] = tested on: COLO 205; assay: NCI 60 antitumor screening (single dose / five doses); assay type: cell-based; conditions: Homo sapiens; COLO 205 (colon cancer), single dose 10 μM; read-out: Growth inhibition percentage (GI %)
[10] = tested on: HCT-116; assay: as above; assay type: cell-based; conditions: Homo sapiens; HCT-116 (colon cancer), single dose 10 μM; read-out: Growth inhibition percentage (GI %)
[11] = tested on: HCT-15; assay: as above; assay type: cell-based; conditions: Homo sapiens; HCT-15 (colon cancer), single dose 10 μM; read-out: Growth inhibition percentage (GI %)
[12] = tested on: SW-620; assay: as above; assay type: cell-based, human; conditions: Homo sapiens; SW-620 (colon cancer), single dose 10 μM; read-out: Growth inhibition percentage (GI %)
[13] = tested on: SF-295; assay: as above; assay type: cell-based; conditions: Homo sapiens; SF-295 (CNS cancer), single dose 10 μM; read-out: Growth inhibition percentage (GI %)
[14] = tested on: SF-539; assay: as above; assay type: cell-based; conditions: Homo sapiens; SF-539 (CNS cancer), single dose 10 μM; read-out: Growth inhibition percentage (GI %)
[15] = tested on: LOX IMVI; assay: as above; assay type: cell-based; conditions: Homo sapiens; LOX IMVI (melanoma), single dose 10 μM; read-out: Growth inhibition percentage (GI %)
[16] = tested on: MDA-MB-435; assay: as above; assay type: cell-based; conditions: Homo sapiens; MDA-MB-435 (melanoma), single dose 10 μM; read-out: Growth inhibition percentage (GI %)
[17] = tested on: SK-MEL-2; assay: as above; assay type: cell-based; conditions: Homo sapiens; SK-MEL-2 (melanoma), single dose 10 μM; read-out: Growth inhibition percentage (GI %)
[18] = tested on: UACC-62; assay: as above; assay type: cell-based; conditions: Homo sapiens; UACC-62 (melanoma), single dose 10 μM; read-out: Growth inhibition percentage (GI %)
[19] = tested on: IGROV1; assay: as above; assay type: cell-based; conditions: Homo sapiens, IGROV-1; IGROV1 (ovarian cancer), single dose 10 μM; read-out: Growth inhibition percentage (GI %)
[20] = tested on: NCI/ADR-RES; assay: as above; assay type: cell-based; conditions: Homo sapiens; NCI/ADR-RES (ovarian cancer), single dose 10 μM; read-out: Growth inhibition percentage (GI %)
[21] = tested on: 786-0; assay: as above; assay type: cell-based; conditions: Homo sapiens, 786-0, 786-0 (renal cancer), single dose 10 μM; read-out: Growth inhibition percentage (GI %)
[22] = tested on: A498; assay: as above; assay type: cell-based; conditions: Homo sapiens; A498 (renal cancer), single dose 10 μM; read-out: Growth inhibition percentage (GI %)
[23] = tested on: RXF 393; assay: as above; assay type: cell-based; conditions: Homo sapiens; RXF 393 (renal cancer), single dose 10 μM; read-out: Growth inhibition percentage (GI %)
[24] = tested on: UO-31; assay: as above; assay type: cell-based; conditions: Homo sapiens; UO-31 (renal cancer), single dose 10 μM; read-out: Growth inhibition percentage (GI %)
[25] = tested on: MDA-MB-231/ATCC; assay: as above; assay type: cell-based; conditions: Homo sapiens; MDA-MB-231/ATCC (breast cancer), single dose 10 μM; read-out: Growth inhibition percentage (GI %)
[26] = tested on: BT-549; assay: as above; assay type: cell-based; conditions: Homo sapiens; BT-549 (breast cancer), single dose 10 μM; read-out: Growth inhibition percentage (GI %)
[27] = tested on: MDA-MB-468; assay: as above; assay type: cell-based; conditions: Homo sapiens; MDA-MB-468 (breast cancer), single dose 10 μM; read-out: Growth inhibition percentage (GI %)
[28] = tested on: 60 human subpanel cancer cell lines; assay: NCI 60 antitumor screening, mean over the panel (single dose); assay type: cell-based; conditions: mean over 60 cancer cell lines, single dose 10 μM
Protocol: Initially, the anticancer effects of target compounds have been assessed at a single (10 μM) dose. The obtained data have been reported as mean-graph of the percent growth (G%) of the treated cancer cells. Percentage growth inhibition (GI%) is calculated (100 − G%) and pronounced in Table 1. […] Target compounds in series (III) with manipulated linkers disclosed lower potency. Superiorly, eight s-triazine derivatives from the three series (6a, 6c, 6d, 7a, 7g, 7i, 7l, and 8b) have shown potent broad-spectrum anticancer activity against most the examined cell lines, whereas most of the remaining triazine derivatives, 20 derivatives, have exerted selective anti-proliferative actions towards certain cancer cell lines (Supplementary).
The antitumor screening was performed for 60 human cancer cell lines under the protocol of NCI (www.dtp.nci.nih.gov), the Drug Evaluation Branch, Bethesda, MD. All submitted compounds were nominated based on the degree of structural diversity and computer modelling techniques for evaluation of their anticancer activity. The screening process for antineoplastic activity passes through two successive levels, starting with the assessment of target compounds at a single dose of 10 μM against 60 cancer cell lines on nine types of human tumours. These experiments were done on a triplicate following. The output from the single‐dose screening was covered as a mean graph, and then, analysed by the COMPARE program. Finally, the compounds which disclosed subpanel cancer cell growth (G %) equal to or less than 10% in at least eight cancer cell lines get to pass the assessment against the 60 cell lines at five doses (0.01–100 μM). By using GraphPad Prism version 9.0 (Graphpad Software Inc., La Jolla, CA), GI50, TGI, as well as LC50 dose‐response parameters were computed and presented for each compound (Supplementary information)[55–57].

Row | SMILES | inhibition at 10 µM [1] [%] | inhibition at 10 µM [2] [%] | inhibition at 10 µM [3] [%] | inhibition at 10 µM [4] [%] | inhibition at 10 µM [5] [%] | inhibition at 10 µM [6] [%] | inhibition at 10 µM [7] [%] | inhibition at 10 µM [8] [%] | inhibition at 10 µM [9] [%] | inhibition at 10 µM [10] [%] | inhibition at 10 µM [11] [%] | inhibition at 10 µM [12] [%] | inhibition at 10 µM [13] [%] | inhibition at 10 µM [14] [%] | inhibition at 10 µM [15] [%] | inhibition at 10 µM [16] [%] | inhibition at 10 µM [17] [%] | inhibition at 10 µM [18] [%] | inhibition at 10 µM [19] [%] | inhibition at 10 µM [20] [%] | also measured
1 | C(=N\Nc1nc(N/N=C/c2ccc3c(c2)OCO3)nc(N2CCCCC2)n1)/c1ccc2c(c1)OCO2 [compound 7k, 2,4-Bis[(E)-2-(2H-1,3-Benzodioxol-5-ylmethylidene)hydrazin-1-yl]-6-(piperidin-1-yl)-1,3,5-triazine] | 79.6 | 43.8 | 99.9 | 6.27 | 4.01 | 16.2 | 19.7 | -21 | 14.1 | 52.1 | 66.2 | 17.6 | 22.2 | 12.4 | 52.1 | 1.52 | -2.84 | -2.37 | 23.1 | 14.5 | inhibition at 10 µM [21]: 13.4%; inhibition at 10 µM [22]: 48.3%; inhibition at 10 µM [23]: 20.3%; inhibition at 10 µM [24]: 25.6%; inhibition at 10 µM [25]: 9.3%; inhibition at 10 µM [26]: -21.9%; inhibition at 10 µM [27]: 18.4%; Mean GI % [28]: 14.53%
2 | Clc1cccc(/C=N/Nc2nc(N/N=C/c3cccc(Cl)c3)nc(N3CCCCC3)n2)c1 [compound 7d, 2,4-Bis[(E)-2-[(3-Chlorophenyl)methylidene]hydrazin-1-yl]-6-(piperidin-1-yl)-1,3,5-triazine] | 25 | 27.6 | 25.4 | 21.6 | -7.89 | -8.18 | 1.37 | -6.48 | -1.88 | 2.75 | 20.2 | -2.95 | 7.02 | -5.25 | -4.97 | 9.61 | 13.9 | 20.8 | -4.79 | 4.8 | inhibition at 10 µM [21]: 4.76%; inhibition at 10 µM [22]: 7.8%; inhibition at 10 µM [23]: 6.56%; inhibition at 10 µM [24]: 23.2%; inhibition at 10 µM [25]: -16.1%; inhibition at 10 µM [26]: 5.13%; inhibition at 10 µM [27]: 23.7%; Mean GI % [28]: 7.03%
